Values after ≈ are worked out from the molar mass of the structure shown. One block for each compound: values may come before it.
Experiments:
[1] = test system: human kinases involved in cellular proliferation; conditions: cited from earlier work
[2] = aqueous solubility pH 7.4; type: physicochemical
P. falciparum W2 = P. falciparum W2 antimalarial activity; type: cell-based, Plasmodium falciparum; conditions: less potent against W2 (CQ resistant) than D6
P. berghei = test: modified Thompson in vivo infection model; conditions: mice, intraperitoneal 160 mg/kg/day × 3 days; for parasitemia: days 3 to 5 post-infection
P. falciparum D6 = P. falciparum D6 antimalarial activity; type: cell-based, Plasmodium falciparum; conditions: D6 strain
P. falciparum C235 = P. falciparum C235 antimalarial activity; type: cell-based, Plasmodium falciparum; conditions: less potent against C235 (CQ, MQ, pyrimethamine resistant) than D6
[3] = rat hepatocyte intrinsic clearance; type: in vitro ADME; conditions: rat hepatocytes
Aurora A = molecular target: T1, Aurora A (Homo sapiens, UniProt O14965); test: human kinase panel at 5 μM; type: biochemical; conditions: test concentration 5 μM
T1 sequence (O14965 1-403): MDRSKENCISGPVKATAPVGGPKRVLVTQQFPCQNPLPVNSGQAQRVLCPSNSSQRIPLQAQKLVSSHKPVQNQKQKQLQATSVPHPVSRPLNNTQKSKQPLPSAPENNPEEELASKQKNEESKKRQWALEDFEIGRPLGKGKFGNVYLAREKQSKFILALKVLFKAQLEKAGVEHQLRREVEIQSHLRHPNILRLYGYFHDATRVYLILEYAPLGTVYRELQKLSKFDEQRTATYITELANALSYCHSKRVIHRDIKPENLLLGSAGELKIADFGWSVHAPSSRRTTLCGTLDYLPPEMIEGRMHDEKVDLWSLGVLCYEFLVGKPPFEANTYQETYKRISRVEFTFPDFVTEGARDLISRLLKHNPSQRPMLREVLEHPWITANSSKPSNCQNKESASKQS

MNK2 = MNK2 (Homo sapiens, UniProt Q9HBH9); test: human kinase panel at 5 μM; type: biochemical; conditions: test concentration 5 μM
MAP4K4 = MAP4K4 (Homo sapiens, UniProt O95819); test: human kinase panel at 5 μM; type: biochemical; conditions: test concentration 5 μM
MAP4K4, sequence (O95819 whole entry): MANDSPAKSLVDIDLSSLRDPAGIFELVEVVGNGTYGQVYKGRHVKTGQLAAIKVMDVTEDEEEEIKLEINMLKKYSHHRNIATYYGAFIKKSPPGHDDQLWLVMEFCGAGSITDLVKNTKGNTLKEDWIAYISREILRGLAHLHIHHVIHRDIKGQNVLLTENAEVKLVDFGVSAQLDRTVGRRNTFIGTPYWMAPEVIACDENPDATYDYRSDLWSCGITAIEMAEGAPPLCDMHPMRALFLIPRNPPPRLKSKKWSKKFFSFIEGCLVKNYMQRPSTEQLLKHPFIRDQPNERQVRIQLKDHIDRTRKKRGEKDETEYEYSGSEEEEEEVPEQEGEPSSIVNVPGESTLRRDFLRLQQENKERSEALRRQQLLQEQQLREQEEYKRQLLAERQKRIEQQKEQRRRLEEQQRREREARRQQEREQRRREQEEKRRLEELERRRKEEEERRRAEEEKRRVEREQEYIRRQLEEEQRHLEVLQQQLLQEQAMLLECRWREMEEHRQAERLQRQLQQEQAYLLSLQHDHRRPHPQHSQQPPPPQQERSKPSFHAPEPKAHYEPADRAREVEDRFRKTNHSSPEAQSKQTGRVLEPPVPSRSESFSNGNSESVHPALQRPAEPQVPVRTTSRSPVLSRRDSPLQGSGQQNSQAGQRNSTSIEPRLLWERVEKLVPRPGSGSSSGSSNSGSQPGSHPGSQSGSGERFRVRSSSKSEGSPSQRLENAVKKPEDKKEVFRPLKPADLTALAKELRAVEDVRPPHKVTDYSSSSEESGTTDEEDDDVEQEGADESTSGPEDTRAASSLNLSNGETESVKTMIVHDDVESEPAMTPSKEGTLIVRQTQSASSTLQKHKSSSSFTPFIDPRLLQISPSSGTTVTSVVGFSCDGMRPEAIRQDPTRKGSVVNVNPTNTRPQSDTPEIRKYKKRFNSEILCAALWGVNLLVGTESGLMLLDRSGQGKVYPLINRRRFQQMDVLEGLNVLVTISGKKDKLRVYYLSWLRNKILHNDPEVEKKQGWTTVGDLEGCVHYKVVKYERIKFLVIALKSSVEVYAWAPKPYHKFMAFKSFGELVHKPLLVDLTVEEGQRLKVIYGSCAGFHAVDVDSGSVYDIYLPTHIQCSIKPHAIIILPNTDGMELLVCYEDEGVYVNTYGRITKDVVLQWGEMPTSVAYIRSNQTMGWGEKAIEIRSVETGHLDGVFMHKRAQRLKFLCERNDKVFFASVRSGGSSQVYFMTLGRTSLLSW

EGFR = EGFR (Homo sapiens, UniProt P00533); test: human kinase panel at 5 μM; type: biochemical; conditions: test concentration 5 μM
EGFR, sequence (P00533 25-1210): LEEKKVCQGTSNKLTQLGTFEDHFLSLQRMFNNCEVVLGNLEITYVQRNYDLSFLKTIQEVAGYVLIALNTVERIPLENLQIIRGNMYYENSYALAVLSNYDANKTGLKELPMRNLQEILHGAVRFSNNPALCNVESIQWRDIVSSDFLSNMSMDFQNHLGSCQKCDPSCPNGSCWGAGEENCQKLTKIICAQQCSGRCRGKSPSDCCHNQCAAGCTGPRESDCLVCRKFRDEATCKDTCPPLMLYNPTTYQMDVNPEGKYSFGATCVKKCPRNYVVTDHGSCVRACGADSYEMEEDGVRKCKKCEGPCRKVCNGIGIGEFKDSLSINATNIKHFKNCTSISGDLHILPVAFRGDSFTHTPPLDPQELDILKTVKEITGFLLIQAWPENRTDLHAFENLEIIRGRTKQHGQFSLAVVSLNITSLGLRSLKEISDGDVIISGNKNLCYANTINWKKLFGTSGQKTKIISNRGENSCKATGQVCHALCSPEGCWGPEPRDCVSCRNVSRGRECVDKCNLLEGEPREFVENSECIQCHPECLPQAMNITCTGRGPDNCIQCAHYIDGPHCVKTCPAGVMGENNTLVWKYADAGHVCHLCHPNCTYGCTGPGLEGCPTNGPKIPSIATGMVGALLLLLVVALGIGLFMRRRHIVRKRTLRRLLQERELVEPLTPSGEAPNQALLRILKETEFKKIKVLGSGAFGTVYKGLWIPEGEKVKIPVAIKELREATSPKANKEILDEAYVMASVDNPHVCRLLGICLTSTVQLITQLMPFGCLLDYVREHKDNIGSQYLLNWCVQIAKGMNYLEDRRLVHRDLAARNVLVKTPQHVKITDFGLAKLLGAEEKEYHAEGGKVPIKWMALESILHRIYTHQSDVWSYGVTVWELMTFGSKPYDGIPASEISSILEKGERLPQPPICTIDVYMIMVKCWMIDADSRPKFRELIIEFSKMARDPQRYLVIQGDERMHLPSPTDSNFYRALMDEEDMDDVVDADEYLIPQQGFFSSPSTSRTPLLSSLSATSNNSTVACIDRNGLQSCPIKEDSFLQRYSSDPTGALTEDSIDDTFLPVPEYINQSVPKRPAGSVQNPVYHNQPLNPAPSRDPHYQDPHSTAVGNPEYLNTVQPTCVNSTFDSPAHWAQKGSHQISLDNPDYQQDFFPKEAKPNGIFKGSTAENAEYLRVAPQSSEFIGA

Abl = Abl (Homo sapiens, UniProt P00519); test: human kinase panel at 5 μM; type: biochemical; conditions: test concentration 5 μM
Abl, sequence (P00519 whole entry): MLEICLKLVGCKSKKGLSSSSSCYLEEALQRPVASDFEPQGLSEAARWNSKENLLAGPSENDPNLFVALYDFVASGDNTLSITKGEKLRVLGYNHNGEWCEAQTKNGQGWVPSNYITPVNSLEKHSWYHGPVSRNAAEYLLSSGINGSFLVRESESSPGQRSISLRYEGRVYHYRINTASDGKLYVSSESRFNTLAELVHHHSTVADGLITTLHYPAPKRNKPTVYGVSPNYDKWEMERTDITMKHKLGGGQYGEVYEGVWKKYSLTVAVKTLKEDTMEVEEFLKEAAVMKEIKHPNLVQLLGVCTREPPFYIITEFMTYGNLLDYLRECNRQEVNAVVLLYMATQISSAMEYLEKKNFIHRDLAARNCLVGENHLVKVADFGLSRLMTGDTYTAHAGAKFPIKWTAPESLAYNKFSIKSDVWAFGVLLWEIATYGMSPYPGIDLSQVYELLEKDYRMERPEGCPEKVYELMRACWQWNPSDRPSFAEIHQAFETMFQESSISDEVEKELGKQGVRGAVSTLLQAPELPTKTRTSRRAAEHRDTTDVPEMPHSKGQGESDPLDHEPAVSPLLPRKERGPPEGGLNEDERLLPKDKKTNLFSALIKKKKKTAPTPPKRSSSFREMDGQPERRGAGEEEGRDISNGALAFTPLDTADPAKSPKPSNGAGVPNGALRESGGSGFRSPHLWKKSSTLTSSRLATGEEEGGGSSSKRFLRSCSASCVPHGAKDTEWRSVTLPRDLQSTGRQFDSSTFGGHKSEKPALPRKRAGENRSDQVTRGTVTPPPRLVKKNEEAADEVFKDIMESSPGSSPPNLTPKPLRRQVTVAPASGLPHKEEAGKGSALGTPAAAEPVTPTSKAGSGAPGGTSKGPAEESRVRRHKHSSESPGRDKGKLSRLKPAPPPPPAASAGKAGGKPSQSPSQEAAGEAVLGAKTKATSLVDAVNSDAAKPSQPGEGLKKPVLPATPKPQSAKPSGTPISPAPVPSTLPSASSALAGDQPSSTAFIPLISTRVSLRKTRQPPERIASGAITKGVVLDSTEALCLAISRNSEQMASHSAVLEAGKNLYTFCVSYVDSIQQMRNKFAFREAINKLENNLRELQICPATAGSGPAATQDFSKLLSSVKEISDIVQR

KDR = KDR (Homo sapiens, UniProt P35968); test: human kinase panel at 5 μM; type: biochemical; conditions: test concentration 5 μM
KDR, sequence (P35968 20-1356): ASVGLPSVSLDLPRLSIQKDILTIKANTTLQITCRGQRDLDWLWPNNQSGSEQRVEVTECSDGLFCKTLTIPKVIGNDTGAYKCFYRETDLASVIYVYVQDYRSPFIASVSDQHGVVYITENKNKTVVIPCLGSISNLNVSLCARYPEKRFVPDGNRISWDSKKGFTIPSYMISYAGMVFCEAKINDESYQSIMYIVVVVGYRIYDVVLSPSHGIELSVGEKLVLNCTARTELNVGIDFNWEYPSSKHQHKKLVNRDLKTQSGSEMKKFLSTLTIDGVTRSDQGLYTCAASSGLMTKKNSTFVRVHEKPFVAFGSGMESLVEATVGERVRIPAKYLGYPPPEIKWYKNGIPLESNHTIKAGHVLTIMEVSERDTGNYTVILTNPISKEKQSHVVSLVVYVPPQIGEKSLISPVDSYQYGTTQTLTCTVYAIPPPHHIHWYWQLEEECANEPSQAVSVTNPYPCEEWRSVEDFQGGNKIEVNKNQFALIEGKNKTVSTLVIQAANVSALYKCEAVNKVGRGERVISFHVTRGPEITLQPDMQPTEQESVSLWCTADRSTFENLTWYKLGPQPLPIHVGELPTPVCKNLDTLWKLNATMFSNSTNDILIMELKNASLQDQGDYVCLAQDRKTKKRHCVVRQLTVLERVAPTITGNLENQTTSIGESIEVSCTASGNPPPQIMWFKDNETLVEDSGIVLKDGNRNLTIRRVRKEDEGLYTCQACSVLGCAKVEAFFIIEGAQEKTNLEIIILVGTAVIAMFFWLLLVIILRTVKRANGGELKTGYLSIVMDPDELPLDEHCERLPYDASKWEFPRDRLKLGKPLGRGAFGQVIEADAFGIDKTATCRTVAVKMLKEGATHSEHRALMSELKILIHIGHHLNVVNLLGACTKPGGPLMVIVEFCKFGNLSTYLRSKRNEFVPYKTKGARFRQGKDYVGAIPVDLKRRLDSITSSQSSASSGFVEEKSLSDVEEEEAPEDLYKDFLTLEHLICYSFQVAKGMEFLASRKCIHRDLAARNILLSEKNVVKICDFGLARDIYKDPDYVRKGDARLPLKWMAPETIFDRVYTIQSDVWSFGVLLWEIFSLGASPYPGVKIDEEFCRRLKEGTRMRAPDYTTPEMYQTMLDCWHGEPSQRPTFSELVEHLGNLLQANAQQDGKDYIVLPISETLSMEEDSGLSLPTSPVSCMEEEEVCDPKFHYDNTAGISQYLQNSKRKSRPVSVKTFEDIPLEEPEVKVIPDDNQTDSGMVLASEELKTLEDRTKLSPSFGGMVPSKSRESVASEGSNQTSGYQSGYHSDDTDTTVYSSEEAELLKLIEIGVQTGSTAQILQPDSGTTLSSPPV

panel of human kinases = test: human kinase panel at 5 μM; type: biochemical; conditions: test concentration 5 μM
[4] = human liver microsome intrinsic clearance; type: in vitro ADME; conditions: liver microsomes
LogD7.4 = type: physicochemical; conditions: pH 7.4
[5] = aqueous solution at pH 7.4, pH 7.4, aqueous buffer

SMILES: CS(=O)(=O)CCNCc1ccc(-c2ccc3ncnc(Nc4ccc(OCc5cccc(F)c5)c(Cl)c4)c3c2)o1 [Compound 1, lapatinib]
selectivity versus numerous human kinases [1]: > 300 fold

SMILES: COc1ccc(Nc2ccnc3cc(-c4ccc(S(=O)(=O)N5CCN(C)CC5)cc4)ccc23)cc1Cl [Compound 7, N-(3-Chloro-4-methoxyphenyl)-7-{4-[(4-methylpiperazin-1-yl)sulfonyl]phenyl}quinolin-4-amine]
solubility ([2]; aqueous medium, pH 7.4, aqueous buffer): 100 µM (≈ 52.3 µg/mL)
activity against W2 strain relative to D6 (fold) (P. falciparum W2): > 3 fold
life extension compared to the control group (P. berghei): 5 days
parasitemia (P. berghei): reduction in parasitemia

SMILES: Cc1ccc(Nc2ccnc3cc(-c4ccc(S(=O)(=O)N5CCN(C)CC5)cc4)ccc23)cc1Cl [Compound 11, N-(3-Chloro-4-methylphenyl)-7-{4-[(4-methylpiperazin-1-yl)sulfonyl]phenyl}quinolin-4-amine]
activity against W2 strain relative to D6 (fold) (P. falciparum W2): > 3 fold

SMILES: CN1CCN(S(=O)(=O)c2ccc(-c3ccc4c(Nc5cccnc5)ccnc4c3)cc2)CC1 [Compound 12, 7-{4-[(4-Methylpiperazin-1-yl)sulfonyl]phenyl}-N-(pyridin-3-yl)quinolin-4-amine]
reduction in potency compared to 3 (P. falciparum D6): 10 fold

SMILES: CN1CCN(S(=O)(=O)c2ccc(-c3ccc4c(Nc5cnccn5)ccnc4c3)cc2)CC1 [Compound 14, 7-{4-[(4-Methylpiperazin-1-yl)sulfonyl]phenyl}-N-(pyrazin-2-yl)quinolin-4-amine]
activity against W2 strain relative to D6 (fold) (P. falciparum W2): > 3 fold

SMILES: CN1CCN(S(=O)(=O)c2ccc(-c3ccc4c(Nc5cnc(C#N)cn5)ccnc4c3)cc2)CC1 [Compound 19, 5-[(7-{4-[(4-Methylpiperazin-1-yl)sulfonyl]phenyl}quinolin-4-yl)amino]pyrazine-2-carbonitrile]
activity against W2 strain relative to D6 (fold) (P. falciparum W2): > 3 fold

SMILES: CN1CCN(S(=O)(=O)c2ccc(-c3ccc4c(Nc5ncc(Cl)cn5)ccnc4c3)cc2)CC1 [Compound 21, N-(5-Chloropyrimidin-2-yl)-7-{4-[(4-methylpiperazin-1-yl)sulfonyl]phenyl}quinolin-4-amine]
activity against W2 strain relative to D6 (fold) (P. falciparum W2): > 3 fold
activity against C235 strain relative to D6 (fold) (P. falciparum C235): > 3 fold

SMILES: Cc1nnc(Nc2ccnc3cc(-c4ccc(S(=O)(=O)N5CCN(C)CC5)cc4)ccc23)nc1C [Compound 23, N-(Dimethyl-1,2,4-triazin-3-yl)-7-{4-[(4-methylpiperazin-1-yl)sulfonyl]phenyl}quinolin-4-amine]
activity against W2 strain relative to D6 (fold) (P. falciparum W2): > 3 fold

SMILES: Cc1cc(Nc2ccnc3cc(-c4ccc(S(=O)(=O)N5CCN(C)CC5)cc4)ccc23)sn1 [Compound 24, N-(3-Methyl-1,2-thiazol-5-yl)-7-{4-[(4-methylpiperazin-1-yl)sulfonyl]phenyl}quinolin-4-amine]
activity against W2 strain relative to D6 (fold) (P. falciparum W2): > 3 fold

SMILES: CN1CCN(c2nsnc2-c2ccc3c(Nc4ccc(OCc5cccc(F)c5)c(Cl)c4)ccnc3c2)CC1 [Compound 30, N-(3-Chloro-4-((3-fluorobenzyl)oxy)phenyl)-7-(4-(4-methylpiperazin-1-yl)-1,2,5-thiadiazol-3-yl)quinolin-4-amine]
reduction in potency compared to 3 (P. falciparum D6): six-fold reduction in potency

SMILES: CC(C)(C)OC(=O)Nc1ccc2c(Nc3ccc(OCc4cccc(F)c4)c(Cl)c3)ccnc2c1 [Compound 36, Tert-butyl (4-((3-Chloro-4-((3-fluorobenzyl)oxy)phenyl)amino)quinolin-7-yl)carbamate]
reduction in potency compared to 3 (P. falciparum D6): almost three-fold drop in potency
activity against W2 strain relative to D6 (fold) (P. falciparum W2): > 3 fold

SMILES: COc1ccc(Nc2ccnc3cc(-c4cnc(N5CCN(C)CC5)nc4)ccc23)cc1Cl [Compound 41, N-(3-Chloro-4-methoxyphenyl)-7-(2-(4-methylpiperazin-1-yl)pyrimidin-5-yl)quinolin-4-amine]
solubility [2, 5]: < 1 µM
Rat Hepatocyte CLint [3]: 45 μL/min/10^6

SMILES: c1cnc(Nc2ccnc3cc(-c4cn[nH]c4)ccc23)cn1 [Compound 43, N-(Pyrazin-2-yl)-7-(1H-pyrazol-4-yl)quinolin-4-amine]
solubility [2, 5]: 1 µM (≈ 0.288 µg/mL)
microsomal CLint [4]: 130 µL/min/mg
Rat Hepatocyte CLint [3]: 5.0 μL/min/10^6
logD (LogD7.4): 2.6

SMILES: COc1ccc(Nc2ccnc3cc(-c4cn[nH]c4)ccc23)cc1Cl [Compound 44, N-(3-Chloro-4-methoxyphenyl)-7-(1H-pyrazol-4-yl)quinolin-4-amine]
solubility [2, 5]: 2 µM (≈ 0.702 µg/mL)
microsomal CLint [4]: 8 µL/min/mg
Rat Hepatocyte CLint [3]: 5.0 μL/min/10^6
logD (LogD7.4): 3.5

Further lines, with some results ahead:

Rat Hepatocyte CLint [3]: 130 μL/min/10^6
inhibition of Aurora A (Aurora A): significant inhibition
inhibition of MNK2 (MNK2): significant inhibition
inhibition of MAP4K4 (MAP4K4): significant inhibition
inhibition of EGFR (EGFR): significant inhibition
inhibition of Abl (Abl): significant inhibition
inhibition of KDR (KDR): significant inhibition
number of kinases with insignificant inhibition (panel of human kinases): 28 kinases
number of kinases with moderate to weak inhibition (panel of human kinases): 10 kinases
SMILES: CN1CCN(c2ncc(-c3ccc4c(Nc5cnccn5)ccnc4c3)cn2)CC1 [Compound 40, 7-(2-(4-Methylpiperazin-1-yl)pyrimidin-5-yl)-N-(pyrazin-2-yl)quinolin-4-amine]
parasitemia (P. berghei): reduction in parasitemia

solubility [2, 5]: < 1 µM
microsomal CLint [4]: 120 µL/min/mg
Rat Hepatocyte CLint [3]: 51 μL/min/10^6
logD (LogD7.4): 3.3
SMILES: CN1CCN(c2ncc(-c3ccc4c(Nc5ccc6[nH]nnc6c5)ccnc4c3)cn2)CC1 [Compound 42, N-(1H-Benzo[d][1,2,3]triazol-5-yl)-7-(2-(4-methylpiperazin-1-yl)pyrimidin-5-yl)quinolin-4-amine]

Rat Hepatocyte CLint [3]: 10 μL/min/10^6
logD (LogD7.4): 2.2
SMILES: CN1CCN(c2ccc(Nc3ccc4c(Nc5cnccn5)ccnc4c3)cc2)CC1 [Compound 45, N^7-(4-(4-Methylpiperazin-1-yl)phenyl)-N^4-(pyrazin-2-yl)quinoline-4,7-diamine]

Rat Hepatocyte CLint [3]: 9.3 μL/min/10^6
logD (LogD7.4): 2.8
SMILES: CN1CCN(c2ccnc(Nc3ccc4c(Nc5cnccn5)ccnc4c3)n2)CC1 [Compound 46, N^7-(4-(4-Methylpiperazin-1-yl)pyrimidin-2-yl)-N^4-(pyrazin-2-yl)quinoline-4,7-diamine]

solubility [2, 5]: 570 µM (≈ 271 µg/mL)
Rat Hepatocyte CLint [3]: 7.2 μL/min/10^6
logD (LogD7.4): 3.3
SMILES: COc1ccc(Nc2ccnc3cc(Nc4nccc(N5CCN(C)CC5)n4)ccc23)cc1Cl [Compound 47, N^4-(3-Chloro-4-methoxyphenyl)-N^7-(4-(4-methylpiperazin-1-yl)pyrimidin-2-yl)quinoline-4,7-diamine]

logD (LogD7.4): 2.9
SMILES: CN1CCN(c2nccc(Nc3ccc4c(Nc5cnccn5)ccnc4c3)n2)CC1 [Compound 48, N^7-(2-(4-Methylpiperazin-1-yl)pyrimidin-4-yl)-N^4-(pyrazin-2-yl)quinoline-4,7-diamine]

microsomal CLint [4]: 45 µL/min/mg
Rat Hepatocyte CLint [3]: 2.3 μL/min/10^6
SMILES: COc1ccc(Nc2ccnc3cc(Nc4ccnc(N5CCN(C)CC5)n4)ccc23)cc1Cl [Compound 49, N^4-(3-Chloro-4-methoxyphenyl)-N^7-(2-(4-methylpiperazin-1-yl)pyrimidin-4-yl)quinoline-4,7-diamine]

— paper PMC6585443 (ACS infectious diseases, 2018)
